# Data reported in US5852190A, “Diazepinoindoles as phosphodiesterase IV inhibitors” (Institut de Recherche Jouveinal SA, priority 1994, dated 1998).
# Tested on: inflammatory cells
# Assay: not given
# Details: in vitro, rodents; cited from earlier work
row,Structure (SMILES),inhibition of the activity of inflammatory cells
1,COc1ccc(C2CNC(=O)C2)cc1OC1CCCC1 (stereo not drawn) [Rolipram],inhibits the activity of inflammatory cells in rodents

# Target: PDE IV
# Assay: PDE IV inhibition (partially purified enzyme) compared with rolipram
# Assay type: biochemical
# Details: enzyme preparation obtained from guinea-pig trachea; same enzyme preparation for rolipram and product
# Protocol: The capacity of the compounds of formula (I) of the invention to inhibit cyclic nucleotide phosphodiesterases is evaluated by measuring their IC50 (concentration of inhibitor required to inhibit enzymatic activity by 50%). In the case of PDEs IV, this value is compared with the IC50 of rolipram, a specific inhibitor of PDE IV, by the ratio of the IC50 of rolipram to the IC50 of the product to be tested, in relation to the same enzyme preparation.
# The different classes of phosphodiesterases are obtained in partially purified form on a DEAE-cellulose column from guinea-pig trachea and dog aorta according to a method adapted from that of W. J. Thompson et al., 1979, Advances in Cyclic Nucleotide Research, Vol. 10: 69-92, ed. G. Brooker et al., Raven Press, New York, and of P. J. Silver et al., 1988, Eur. J. Pharmacol. 150: 85-94.
# Subsequently, the measurement of the enzymatic activity of the different classes of PDE, and in particular of the PDEs IV, is carried out according to a method which is likewise adapted from that of W. J. Thompson, ibidem.
# For the determination of the IC50 the enzymatic activity is measured in the presence of the inhibitor in a range of concentrations from 0.1 to 100 μM.
# The following table illustrates the PDE IV-inhibitory activity in comparison with that of rolipram for an enzyme preparation obtained from guinea-pig trachea.
row,Structure (SMILES),IC50 rolipram / IC50 example (PDE IV-inhibitory effect compared with rolipram)
1,"COc1cc2c3c(c1)C(c1ccccc1)=N[C@@H](NC(=O)c1cccc(Cl)c1)C(=O)N3CC2 [Example 6A, (3R)-3-Chloro-N-(9-methoxy-4-oxo-1-phenyl-3,4,6,7-tetrahydro[1,4]diazepino[6,7,1-hi]indol-3-yl)benzamide]",2.7
2,"O=C(N[C@@H]1N=C(c2ccccc2)c2cccc3c2N(CC3)C1=O)c1cnc2ccccc2c1 [Example 2S, (3R)-Quinoline-3-carboxylic acid (4-oxo-1-phenyl-3,4,6,7-tetrahydro[1,4]diazepino[6,7,1-hi]indol-3-yl)amide]",3.3
3,"COc1cc2c3c(c1)C(c1ccccc1)=N[C@@H](NC(=O)c1ccc4ncccc4c1)C(=O)N3CC2 [Example 6E, (3R) -Quinoline-6-carboxylic acid (9-methoxy-4-oxo-1-phenyl-3,4,6,7-tetrahydro[1,4]diazepino[6,7,1-hi]indol-3-yl)amide]",1.9
4,"COc1cc(C(=O)N[C@@H]2N=C(c3ccccc3)c3cccc4c3N(CC4)C2=O)cc(OC)c1OC [Example 2M, (3R)-3,4,5-Trimethoxy-N-(4-oxo-1-phenyl-3,4,6,7-tetrahydro[1,4]diazepino[6,7,1-hi]indol-3-yl)-benzamide]",1.3
5,"O=C(N[C@@H]1N=C(c2ccccc2)c2cccc3c2N(CC3)C1=O)c1ccccn1 [Example 2P, (3R)-Pyridine-2-carboxylic acid (4-oxo-1-phenyl-3,4,6,7-tetrahydro[1,4]diazepino[6,7,1-hi]indol-3-yl)amide]",1.5
6,"O=C(N[C@@H]1N=C(c2ccccc2)c2cccc3c2N(CC3)C1=O)c1ccc2ncccc2c1 [Example 2T, (3R)-Quinoline-6-carboxylic acid (4-oxo-1-phenyl-3,4,6,7-tetrahydro[1,4]diaze-ino[6,7,1-hi]indol-3-yl)amide]",2.0
7,"COc1cc2c3c(c1)C(c1ccccc1)=N[C@@H](NC(=O)c1ccncc1)C(=O)N3CC2 [Example 6C, (3R)-N-(9-methoxy-4-oxo-1-phenyl-3,4,6,7-tetrahydro[1,4]diaze-ino[6,7,1-hi]indol-3-yl)isonicotinamide]",1.6
8,"O=C(N[C@@H]1N=C(c2ccccc2)c2cccc3c2N(CC3)C1=O)c1cccc(F)c1 [Example 2B, (3R)-3-Fluoro-N-(4-oxo-1-phenyl-3,4,6,7-tetrahydro[1,4]diazepino[6,7,1-hi]indol-3-yl)-benzamide]",1.2
9,"O=C(N[C@@H]1N=C(c2ccccc2)c2cccc3c2N(CC3)C1=O)c1ccc(F)cc1 [Example 2C, (3R)-4-Fluoro-N-(4-oxo-1-phenyl-3,4,6,7-tetrahydro[1,4]diazepino[6,7,1-hi]indol-3-yl) -benzamide]",1.2
10,"COc1cc2c3c(c1)C(c1ccccc1)=NC(NC(=O)c1cc4ccccc4cn1)C(=O)N3CC2 [Example 5, (3R,S)-Isoquinoline-3-carboxylic acid (9-methoxy-4-oxo-1-phenyl-3,4,6,7-tetrahydro[1,4]-diazepino(6,7,1-hilindol-3yl)amide]",1.2
11,"CC(=O)Nc1ccc(C(=O)N[C@@H]2N=C(c3ccccc3)c3cccc4c3N(CC4)C2=O)cc1 [Example 2O, (3R)-4-Acetamido-N-(4-oxo-1-phenyl-3,4,6,7-tetrahydro[1,4]diazepino[6,7,1-hi]indol-3-yl)-benzamide]",1.9
12,"COc1cc2c3c(c1)C(c1ccccc1)=N[C@@H](NC(=O)c1nnc4cc(C)nn4c1C)C(=O)N3CC2 [Example 6G, (3R)-4.7-Dimethylpyrazolo[5,1-c[]1,2,4]-triazine-3-carboxylic acid (9-methoxy-4-oxo-1-phenyl-3,4,6,7-tetrahydro[1,4]diazepino[6,7,1-hi]indol-3-yl)-amide]",2.2
13,"COc1cc2c3c(c1)C(c1ccccc1)=N[C@@H](NC(=O)c1cc4ccccc4cn1)C(=O)N3CC2 [Example 6F, (3R)-Isoquinoline-3-carboxylic acid (9-methoxy-4-oxo-1-phenyl-3,4,6,7-tetrahydro[1,4]diazepino-[6,7,1-hi]indol-3-yl)amide]",1.2
14,"O=C(NC1N=C(c2ccccc2)c2cccc3c2N(CC3)C1=O)c1cn2ccccc2n1 (racemic) [Example 1B, (3R,S)-Imidazo[1,2-a]pyridine-2-carboxylic acid N-(4-oxo-1-phenyl-3,4,6,7-tetrahydro1,4]diazepino-[6,7,1-hi]indol-3-yl)amide]",3.7
15,"COc1cc2c3c(c1)C(c1ccccc1)=N[C@@H](NC(=O)c1cnc4ccccc4c1)C(=O)N3CC2 [Example 6D, (3R)-Quinoline-3-carboxylic acid (9-methoxy-4-oxo-1-phenyl-3,4,6,7-tetrahydro[1,4]diazepino[6,7,1-hi]indol-3-yl)amide]",1.9
16,"Cc1cc2nnc(C(=O)N[C@@H]3N=C(c4ccccc4)c4cccc5c4N(CC5)C3=O)c(C)n2n1 [Example 2Y, (3R)-4,7-Dimethyl-pyrazolo[5,1-c][1,2,4]triazine-3-carboxylic acid (4-oxo-1-phenyl-3,4,6,7-tetrahydro[1,4]diazepino[6,7,1-hi]indol-3-yl)amide]",1.4
17,"COc1ccc(Cl)cc1C(=O)N[C@@H]1N=C(c2ccccc2)c2cccc3c2N(CC3)C1=O [Example 2N, (3R) -2-Methoxy-5-chloro-N-(4-oxo-1-phenyl-3,4,6,7-tetrahydro[1,4]diazepino[6,7,1-hi]indol-3-yl)-benzamide]",2.5
18,"COc1cc2c3c(c1)C(c1ccccc1)=N[C@@H](NC(=O)c1ccc(Cl)cc1)C(=O)N3CC2 [Example 6B, (3R)-4-Chloro-N-(9-methoxv-4-oxo-1-phenyl-3,4,6,7-tetrahydro[1,4]diazepino[6,7,1-hi]indol-3-yl)benzamide]",1.6

# Tested on: phosphodiesterase
# Assay: not given
# Details: nonspecific inhibitor; cited from earlier work
row,Structure (SMILES),inhibition of several classes of phosphodiesterases
1,Cn1c(=O)c2[nH]cnc2n(C)c1=O [Theophylline],inhibit several classes of enzymes

# Tested on: not listed separately
# Assay: subacute oral toxicity in the rat
# Assay type: in vivo
# Details: 100 mg/kg/day for two weeks, 1% aqueous suspension in methyl cellulose
# Source text: The subacute oral toxicity of Example 2V was studied in the rat.
row,Structure (SMILES),subacute oral toxicity
1,"O=C(N[C@@H]1N=C(c2ccccc2)c2cccc3c2N(CC3)C1=O)c1cc2ccccc2cn1 [Example 2V, (3R)-Isocuinoline-3-carboxylic acid (4-oxo-1-phenyl-3,4,6,7-tetrahdro[1,4]diazerino[6,7,1-hi]indol-3-yl)amide]",showed no activity which could be linked with a toxic effect

# Tested on: not given
# Assay: not given
# Details: in use; cited from earlier work
row,Structure (SMILES),undesirable effects
1,Cn1c(=O)c2[nH]cnc2n(C)c1=O [Theophylline],nausea and headaches
2,COc1ccc(C2CNC(=O)C2)cc1OC1CCCC1 (stereo not drawn) [Rolipram],nausea and vomiting

# Same assay, conditions: methylxanthines such as theophylline; cited from earlier work
row,Structure (SMILES),therapeutic index
1,Cn1c(=O)c2[nH]cnc2n(C)c1=O [Theophylline],low therapeutic index
